# From patent EP4778929A1, “NOVEL TYPE I TOPOISOMERASE INHIBITOR, AND PREPARATION METHOD THEREFOR AND USE THEREOF” (priority 2023, dated 2025)
# Where two headings read alike, the source gives them in different places.
# Columns and labels:
# topoisomerase I (Topo I) = target: T1, topoisomerase I (Topo I) (Homo sapiens, UniProt P11387); test: Topo I enzyme-inhibitory activity by agarose-gel electrophoresis (plasmid relaxation); type: biochemical
# T1 sequence (P11387 1-765): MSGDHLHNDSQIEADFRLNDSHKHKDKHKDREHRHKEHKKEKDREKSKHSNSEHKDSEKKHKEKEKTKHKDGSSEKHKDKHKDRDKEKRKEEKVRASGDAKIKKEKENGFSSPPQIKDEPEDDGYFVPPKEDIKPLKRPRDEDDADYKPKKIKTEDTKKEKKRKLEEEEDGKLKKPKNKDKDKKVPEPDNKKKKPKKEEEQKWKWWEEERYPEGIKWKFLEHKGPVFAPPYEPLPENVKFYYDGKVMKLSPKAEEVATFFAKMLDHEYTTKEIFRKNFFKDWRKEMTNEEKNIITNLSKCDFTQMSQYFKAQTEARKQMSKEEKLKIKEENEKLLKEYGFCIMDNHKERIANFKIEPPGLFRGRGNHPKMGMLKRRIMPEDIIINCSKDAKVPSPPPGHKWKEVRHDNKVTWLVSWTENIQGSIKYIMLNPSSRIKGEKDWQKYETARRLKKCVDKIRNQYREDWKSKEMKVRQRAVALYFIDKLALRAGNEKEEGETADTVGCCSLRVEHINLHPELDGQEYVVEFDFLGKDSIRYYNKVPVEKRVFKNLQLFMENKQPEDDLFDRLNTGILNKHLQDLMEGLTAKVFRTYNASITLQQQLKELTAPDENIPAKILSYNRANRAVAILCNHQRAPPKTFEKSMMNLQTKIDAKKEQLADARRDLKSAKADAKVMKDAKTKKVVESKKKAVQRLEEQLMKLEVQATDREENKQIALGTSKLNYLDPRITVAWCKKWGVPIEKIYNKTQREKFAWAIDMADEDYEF
# Source text: Test Example 1. Determination of Topo I Enzyme-Inhibitory Activity by Agarose-Gel Electrophoresis
# Principle: Type-I topoisomerase (Topo I) relaxes positive and negative supercoils by introducing transient single-strand breaks and forming reversible cleavage complexes (Topo I-DNA covalent complexes). Gel electrophoresis can resolve DNA species of identical molecular weight but different topology: supercoiled plasmid migrates fastest, whereas the nicked, relaxed form moves more slowly. Quantifying the decrease in supercoiled DNA therefore provides a direct measure of Topo I activity.
# Experimental Procedure: A 1× reaction buffer was prepared (20 mM Tris-HCl pH 7.5, 200 mM NaCl, 0.25 mM EDTA, 5 % (v/v) glycerol, 0.5 µg pNO1 plasmid substrate). Test compounds (5 % DMSO final) were added to the buffer, followed by Topo I enzyme (0.75 U per reaction). After gentle mixing, reactions were incubated at 37 °C for 30 min. Positive (enzyme + vehicle) and negative (no enzyme) controls were included in parallel. Reactions were terminated by adding STEB buffer and chloroform/iso-amyl alcohol (24:1, v/v), vortexed and centrifuged for 2 min. The aqueous (upper) phase was loaded onto a 1 % (w/v) agarose gel, electrophoresed for 1-2 h, stained with GelRed, and imaged under UV trans-illumination.
# Data Analysis: Band intensities of supercoiled DNA were quantified with image-analysis software. Relaxation activity (%) was calculated as (Max-Sample)/ (Max-Min)*100%, where Max = intensity of the no-enzyme negative control, Min = intensity of the vehicle-only positive control, and Sample = intensity of the compound-treated lane. Dose-response data (compound concentration, X; relaxation activity %, Y) were fitted in Excel or GraphPad Prism 5.0 using the four-parameter logistic equation: Y=Bottom + (Top-Bottom)/(1+(IC50/X)[…]) to derive the IC50 value for each compound.
# Table 1. Compound-mediated inhibition of topoisomerase I (Topo I) enzymatic activity
# [1] = Pharmacokinetic study in mice, plasma concentrations by LC-MS/MS
# Procedure: Test Example 3. Pharmacokinetic Study for Determining Compound Concentrations in Mice by LC-MS/MS
# Principle: LC-MS/MS is used to quantify the plasma concentrations of the test article at successive time points, generating an in-vivo pharmacokinetic profile.
# Procedure: The test compound was dissolved in DMSO to prepare a 10 mg/mL stock solution. This stock was further diluted to 1 mg/mL with a vehicle consisting of 10 % DMSO + 10 % Solutol HS-15 + 80 % saline. Male CD-1 mice (JH Laboratory Animal Co., LTD) were employed; six animals were assigned per compound group. […] Serial blood samples (~50 µL whole blood, K2EDTA anticoagulant) were collected at 0.083, 0.25, 0.5, 1, 2, 4, 8 and 24 h (three mice per time point in a crossover design). Blood was centrifuged at 6 000 g for 5 min at 4 °C; plasma was harvested and stored at -70 °C until analysis. Plasma drug concentrations were determined by LC-MS/MS.
# Calibration Curve and QC Preparation: Working solutions were prepared by dilution with MeOH:H2O (1:1). For each calibration or QC level, 3 µL of working solution was spiked into 57 µL of blank mouse plasma.
# Sample Processing: To 30 µL of plasma was added 200 µL of methanol containing the internal standard (propranolol, 40 ng mL^-1). After vortex-mixing for 1 min, the mixture was centrifuged at 12 000 rpm for 10 min. A 100 µL aliquot of the supernatant was transferred to a clean plate for injection.
# Pharmacokinetic Analysis: Concentration-time data were analyzed with WinNonlin 8.2 using a non-compartmental approach to derive PK parameters including Cmax, Tmax, AUC and terminal elimination half-life (t1/2). AUC was calculated by the linear-up/log-down trapezoidal method. Table 3. Pk parameters of compounds
# HCT116 cells = test: Inhibition of cell proliferation by CTG (CellTiter-Glo) luminescence assay; type: cell-based; settings: Homo sapiens, HCT-116; 72 h incubation, CellTiter-Glo; read-out: HCT116, IC50
# Source text: Test Example 2. Determination of Compound-Mediated Inhibition of Cell Proliferation by CTG (CellTiter-Glo) Luminescence Assay
# Principle: The Promega CellTiter-Glo™ luciferase reagent was used. Luciferase consumes ATP to generate light; metabolically active cells continuously produce ATP through respiration and other processes. After adding an equal volume of CellTiter-Glo™ reagent to the culture medium, the resulting luminescence is directly proportional to the ATP content, which in turn correlates with the number of viable cells. Thus, the assay quantifies compound-induced suppression of cell proliferation.
# Experimental Procedure: HCT116 cells (ATCC) were revived in complete medium (McCoy's 5a + 10 % FBS). After two passages, exponentially growing cells were harvested, counted, and resuspended to the appropriate density. A 100 µL aliquot of cell suspension (2 000 cells per well) was seeded into 96-well plates and incubated overnight (37 °C, 5 % CO2, 100 % relative humidity). Test compounds were dissolved in DMSO to prepare 10 mM stock solutions and serially diluted 1:3 in DMSO to generate nine concentration steps. Each DMSO solution was further diluted 200-fold into medium; 25 µL of the resulting solutions were added to the cell plates (final DMSO concentration […]). After 72 h incubation (37 °C, 5 % CO2), 50 µL of CellTiter-Glo reagent was added per well. Plates were shaken gently, incubated for 30 min at room temperature in the dark, and luminescence was read on an EnVision multimode reader. Percent inhibition was calculated as: Inhibition % = (1−As/Ac) × 100, [formula] where As = signal from compound-treated wells and Ac = signal from DMSO-only control wells. Concentration-response data were fitted in Excel with the XLfit add-in using the four-parameter logistic equation: Y = Bottom + (Top−Bottom)/[1+((IC50/X))^(∧)HillSlope], [formula] to derive the IC50 value for each compound. Table 2. IC50 of compounds
# [2] = 0.75 U Topo I, pNO1 plasmid, 37 °C, 30 min; compounds listed by group (Group A / Group B); read-out: inhibition of topoisomerase I (Topo I) enzymatic activity, IC50
# [3] = read-out: inhibition of topoisomerase I (Topo I) enzymatic activity, IC50; 0.75 U Topo I, pNO1 plasmid, 37 °C, 30 min; compounds listed by group (Group A / Group B)
# [4] = male, CD-1, mouse, po, 20 mg/kg
# [5] = male, CD-1, mouse, po, 10 mg/kg
smiles,measurement,setting,value
"CC[C@@]1(O)C(=O)OCc2c1cc1n(c2=O)Cc2c-1c(=O)c1cc(F)c([C@H](C)O)cc1n2C1CCCC1 (single isomer, unassigned) [Example 293]",IC50,topoisomerase I (Topo I); [2],200 to 500 nM
"CC[C@@]1(O)C(=O)OCc2c1cc1n(c2=O)Cc2c-1c(=O)c1cc(F)c([C@@H](C)O)cc1n2C1CCCC1 (single isomer, unassigned) [Example 294]",IC50,topoisomerase I (Topo I); [2],200 to 500 nM
"CC[C@@]1(O)C(=O)OCc2c1cc1n(c2=O)Cc2c-1c(=O)c1cc(F)ccc1n2CCNC1CC1 [Example 96, (S)-11-(2-(cyclopropylamino)ethyl)-4-ethyl-8-fluoro-4-hydroxy-1,12-dihydro-14H-pyrano[3,4:6,7]indolizino[2,1-b]quinoline-3,6,14 (4H,11H)-trione]",IC50,topoisomerase I (Topo I); [3],< 200 nM
"CC[C@@]1(O)C(=O)OCc2c1cc1n(c2=O)Cc2c-1c(=O)c1cc(F)ccc1n2CCN(C)C1CC1 [Example 97, (S)-11-(2-(cyclopropyl(methyl)amino)ethyl)-4-ethyl-8-fluoro-4-hydroxy-1,12-dihydro-14H-pyrano[3,4:6,7]indolizino[2,1-b]quinoline-3,6,14(4H,11H)-trione]",bioavailability,"[1]; mouse, in vivo",34.5%
same,AUC(0-t) at 24 h,"[1]; mouse, in vivo, iv, 1 mg/kg",114 ng·h/mL
same,Cmax,"[1]; mouse, in vivo, iv, 1 mg/kg",256 ng/mL
same,clearance,"[1]; mouse, in vivo, iv, 1 mg/kg",146 mL/min/kg
same,half-life,"[1]; mouse, in vivo, iv, 1 mg/kg",0.482 h
same,AUC(0-t) at 24 h,"[1]; mouse, in vivo, po, 10 mg/kg",395 ng·h/mL
same,Cmax,"[1]; mouse, in vivo, po, 10 mg/kg",131 ng/mL
same,Tmax,"[1]; mouse, in vivo, po, 10 mg/kg",0.92 h
same,half-life,"[1]; mouse, in vivo, po, 10 mg/kg",1.26 h
CC[C@@]1(O)C(=O)OCc2c1cc1n(c2=O)Cc2c-1c(=O)c1cc3c(cc1n2CCN(C)C1CCCC1)OCO3 [Example 179],IC50,topoisomerase I (Topo I); [3],200 to 500 nM
CC[C@@]1(O)C(=O)OCc2c1cc1n(c2=O)Cc2c-1c(=O)c1cc(F)ccc1n2CCN1CCCC1 [Example 193],IC50,topoisomerase I (Topo I); [3],200 to 500 nM
"CC[C@@]1(O)C(=O)OCc2c1cc1n(c2=O)Cc2c-1c(=O)c1cc(F)ccc1n2[C@@H]1CCN(CCO)C1 [Example 252, (S)-4-ethyl-8-fluoro-4-hydroxy-11-((R)-1-(2-hydroxyethyl)pyrrolidin-3-yl)-1,12-dihydro-14H-pyrano[3',4':6,7]indolizino[2,1-b]quinoline-3,6,14(4H,11H)-trione]",bioavailability,"[1]; male, CD-1, mouse",43.1%
same,AUC(0-t),"[1]; male, CD-1, mouse, iv, 2 mg/kg",674 ng·h/mL
same,Cmax,"[1]; male, CD-1, mouse, iv, 2 mg/kg",558 ng/mL
same,clearance,"[1]; male, CD-1, mouse, iv, 2 mg/kg",49.2 mL/min/kg
same,half-life,"[1]; male, CD-1, mouse, iv, 2 mg/kg",1.17 h
same,AUC(0-t),[1]; [4],2820 ng·h/mL
same,Cmax,[1]; [4],680 ng/mL
same,Tmax,[1]; [4],1.33 h
same,half-life,[1]; [4],5.75 h
"CC[C@@]1(O)C(=O)OCc2c1cc1n(c2=O)Cc2c-1c(=O)c1cc(F)ccc1n2[C@@H]1CCN(C2CCCC2)C1 [Example 257, (S)-4-ethyl-8-fluoro-4-hydroxy-11-((R)-1-cyclopentylpyrrolidin-3-yl)-1,12-dihydro-14H-pyrano[3',4':6,7]indolizino[2,1-b] quinoline-3,6,14(4H,11H)-trione]",IC50,HCT116 cells,< 20 nM
same,bioavailability,"[1]; male, CD-1, mouse",40.2%
same,AUC(0-t),"[1]; male, CD-1, mouse, iv, 1 mg/kg",352 ng·h/mL
same,Cmax,"[1]; male, CD-1, mouse, iv, 1 mg/kg",635 ng/mL
same,clearance,"[1]; male, CD-1, mouse, iv, 1 mg/kg",47.4 mL/min/kg
same,half-life,"[1]; male, CD-1, mouse, iv, 1 mg/kg",1.24 h
same,AUC(0-t),[1]; [5],1370 ng·h/mL
same,Cmax,[1]; [5],528 ng/mL
same,Tmax,[1]; [5],0.83 h
same,half-life,[1]; [5],7.95 h
"CC[C@@]1(O)C(=O)OCc2c1cc1n(c2=O)Cc2c-1c(=O)c1cc(F)ccc1n2[C@@H]1CCN(CC2CC2)C1 [Example 259, (S)-11-((R)-1-(cyclopropylmethyl)pyrrolidin-3-yl)-4-ethyl-8-fluoro-4-hydroxy-1H-pyrano[3',4':6,7]indolizino[2,1-b]quinoline-3,6,14(4H,11H,12H)-trione]",IC50,HCT116 cells,< 20 nM
same,bioavailability,"[1]; male, CD-1, mouse",46.6%
same,AUC(0-t),"[1]; male, CD-1, mouse, iv, 1 mg/kg",524 ng·h/mL
same,Cmax,"[1]; male, CD-1, mouse, iv, 1 mg/kg",497 ng/mL
same,clearance,"[1]; male, CD-1, mouse, iv, 1 mg/kg",31.8 mL/min/kg
same,half-life,"[1]; male, CD-1, mouse, iv, 1 mg/kg",0.96 h
same,AUC(0-t),[1]; [5],2400 ng·h/mL
same,Cmax,[1]; [5],1230 ng/mL
same,Tmax,[1]; [5],0.83 h
same,half-life,[1]; [5],6.24 h
"CC[C@@]1(O)C(=O)OCc2c1cc1n(c2=O)Cc2c-1c(=O)c1cc(F)c(CO)cc1n2C1CCCC1 [Example 291, (S)-11-cyclopentyl-4-ethyl-8-fluoro-4-hydroxy-9-(hydroxymethyl)-1,12-dihydro-14H-pyrano[3,4:6,7]indolizino[2,1-b]quinoline-3,6,14(4H,11H)-trione]",IC50,topoisomerase I (Topo I); [2],200 to 500 nM
"CC[C@@]1(O)C(=O)OCc2c1cc1n(c2=O)Cc2c-1c(=O)c1cc(F)c(CC(C)O)cc1n2C1CCCC1 (stereo partly drawn) [Example 292, (4S)-11-cyclopentyl-4-ethyl-8-fluoro-4-hydroxy-9-(2-hydroxypropyl)-1,12-dihydro-14H-pyrano[3,4:6,7]indolizino[2,1-b]quinoline-3,6,14(4H,11H)-trione]",IC50,topoisomerase I (Topo I); [2],200 to 500 nM
CCc1c2c(nc3ccc(O)cc13)-c1cc3c(c(=O)n1C2)COC(=O)[C@]3(O)CC [SN38],AUC(0-t) at 24 h,"[1]; mouse, iv, 1 mg/kg",103 ng·h/mL
same,Cmax,"[1]; mouse, iv, 1 mg/kg",278 ng/mL
same,clearance,"[1]; mouse, iv, 1 mg/kg",163 mL/min/kg
same,half-life,"[1]; mouse, iv, 1 mg/kg",0.566 h
same,AUC(0-t) at 24 h,"[1]; mouse, po, 10 mg/kg",0.23 ng·h/mL
same,Cmax,"[1]; mouse, po, 10 mg/kg",1.87 ng/mL
